Several values for one entry are separate records, joined by “and”; a condition that tells them apart may be missing. Equal values may be shown once.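 Following 48 hours of exposure in 96-well plates, responses at five concentrations were used to interpolate endpoints linearly. GI50: concentration for 50% inhibition of growth. TGI marks complete inhibition of growth.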
Experiments:
Assay in all cases: NCI-60 cell line screen, 48 h
A498 renal = system: A498 renal
A549 NSCLC = system: A549 NSCLC
HCT-116 colon = system: HCT-116 colon
HL-60(TB) leukemia = system: HL-60(TB) leukemia
NCI-H460 lung = system: NCI-H460 lung
OVCAR-3 ovarian = system: OVCAR-3 ovarian
PC-3 prostate = system: PC-3 prostate
SF-295 CNS = system: SF-295 CNS
SK-MEL-28 melanoma = system: SK-MEL-28 melanoma
SR leukemia = system: SR leukemia

Compound | GI50 (A498 renal) [µM] | TGI (A498 renal) [µM] | GI50 (A549 NSCLC) [µM] | TGI (A549 NSCLC) | GI50 (HCT-116 colon) [µM] | TGI (HCT-116 colon) | GI50 (HL-60(TB) leukemia) [µM] | TGI (HL-60(TB) leukemia) | GI50 (NCI-H460 lung) [µM] | TGI (NCI-H460 lung) | GI50 (OVCAR-3 ovarian) [µM] | TGI (OVCAR-3 ovarian) [µM] | GI50 (PC-3 prostate) [µM] | TGI (PC-3 prostate) [µM] | GI50 (SF-295 CNS) [µM] | TGI (SF-295 CNS) [µM] | GI50 (SK-MEL-28 melanoma) [µM] | TGI (SK-MEL-28 melanoma) | GI50 (SR leukemia) [µM] | TGI (SR leukemia) [µM]
Cc1noc(C)c1-c1cnc2c(-c3ccc(C(=O)O)cc3)cn([C@@H](C)c3ccccn3)c2c1 | 0.196 | 1.87 | 3.25 | > 100 µM | 1.14 | > 100 µM | 0.253 | > 100 µM | 6.07 | > 100 µM | 0.959 | 32.1 | 3.28 | > 100 | 3.71 | > 100 | 5.44 | > 100 µM | 0.838 | > 100
O=C(CN(/C=C/C(=O)C(F)(F)F)c1ccccc1)c1ccc(Cl)cc1 | 20.4 | 42.2 | 21.1 | 77.5 µM | 12 | 24.5 µM | – | – | 16.1 | 38.2 µM | 21.6 | 46.7 | 16.1 | 34.2 | 18.8 | 48.2 | 20.7 | 44.6 µM | – | –
CC[C@@H](O)C[C@H]1CCC[C@@]2(C[C@@H]3OC(=O)/C=C/[C@@](C)(O)[C@@H](O)[C@H](C)[C@@H](O)[C@H](OC4CCC(N(C)C)C(C)O4)[C@@H](O)[C@](C)(O)CCCCC/C=C/[C@@H]4CC(C)(C)O[C@@]4(O)C[C@H](O2)[C@H]3C)O1 (stereo partly drawn) | – | 57.4 | – | 20.5 µM | – | 26.2 µM | – | > 39.8 µM | – | 46.8 µM | – | 25.5 | – | 15.7 | – | 21.6 | – | 36.8 µM | – | 9.42
Cn1cc(C2=C(c3ccccc3C(F)(F)F)C(=O)NC2=O)c2ccccc21 | 3.9 | 17.5 | 7.89 | > 25 µM | 6.59 | > 25 µM | 6.87 | 17.5 µM | 9.18 | > 25 µM | 7.8 | 24.8 | 6.13 | > 25 | 4.33 | > 17.2 | 14.6 | > 25 µM | 6.36 | > 22.2
COc1cc(-c2cc3ncccc3c3[nH]c(=O)c4cccnc4c23)cc(OC)c1OC | – | – | 1.28 | > 100 µM | – | – | – | – | 0.433 | > 100 µM | 0.329 | > 100 | 0.858 | > 100 | 0.379 | 25.4 | 0.957 | > 100 µM | 0.359 | 71.9
O=C(Nc1ccc2c(c1)OCCO2)C(=O)c1c[nH]c2ccccc12 | 0.535 | 7.08 | 1.18 | > 100 µM | 1.25 | > 20.5 µM | 1.21 | > 32.9 µM | 1.3 | > 100 µM | 1.29 | 4.68 | 2.17 | > 100 | 1.33 | 10.6 | 5.6 | > 100 µM | 0.268 | > 46.7
C=C1C(=O)O[C@H]2[C@H]1CC/C(COC(=O)NCCc1cccc(OC)c1)=C\CC[C@@]1(C)O[C@@H]21 | 2.35 | 7.76 | 7.28 | 21.9 µM | 0.714 | 2.08 µM | 1.36 | 4.34 µM | 3.94 | 16.6 µM | 0.995 | 2.38 | 2.3 | 5.54 | 7.26 | 20.4 | 1.35 | 3.3 µM | 0.511 | 2.86
O=C(/C=C\n1cnc(-c2cc(C(F)(F)F)cc(C(F)(F)F)c2)n1)N1CC(F)(F)C1 | 0.0375 | 0.452 | 0.559 | > 25 µM | 0.4 | 4.45 µM | 0.399 | > 17.1 µM | 0.207 | 3.07 µM | 0.332 | 3.03 | 0.277 | 4.54 | 0.336 | > 17 | 0.46 | 4.81 µM | 0.151 | > 25
CCOc1ccc(N=Cc2ccnc3ccccc23)cc1 | – | > 100 | – | > 100 µM | – | 54.3 µM | – | 17 µM | – | > 100 µM | – | 73.1 | – | > 100 | – | > 100 | – | > 100 µM | – | 6.76
CC/C(Cc1ccccc1)=C(/c1ccc(O)cc1)c1ccc(OCCN2CCCC2)cc1 | 1.27 | 2.72 | 2.05 | 3.82 µM | 1.83 | 3.3 µM | 1.9 | 3.84 µM | 1.72 | 3.48 µM | 1.82 | 3.46 | 1.79 | 3.25 | 1.81 | 3.46 | 1.72 | 3.42 µM | 1.35 | 3.2
Cc1ccc(O)c(NC2=C(Cl)C(=O)N(Cc3ccccc3)C2=O)c1 | – | – | 27.1 | 91.3 µM | 31.2 | > 100 µM | – | – | 28.6 | > 100 µM | 14.9 | 32.9 | 38.7 | > 100 | 26.2 | 71.2 | 22.3 | 54.1 µM | 18.3 | 84.9
O=C1Nc2ccccc2/C1=C/c1cn(CC(O)Cn2cc(/C=C3\C(=O)Nc4ccccc43)c3ccccc32)c2ccccc12 (stereo not drawn) | 2.18 | 4.08 | 1.51 | 3.21 µM | 1.66 | 4.13 µM | 2.95 | 10.8 µM | 0.488 | 1.88 µM | 1.65 | 3.3 | 1.21 | 2.66 | 1.66 | 3.28 | 1.77 | 3.5 µM | – | –
COc1ccc(-c2nn3ncccc3c2-c2ccnc(Nc3ccc4c(c3)OCCO4)n2)cc1 | 3.69 | 22.1 | 8.41 | > 25 µM | 8.16 | > 25 µM | 12.9 | > 25 µM | 8.74 | > 25 µM | 9.86 | > 25 | 9.12 | > 25 | > 17.2 | > 25 | 16.9 | > 25 µM | 16.1 | > 25
S=C(CSc1ccccc1)Nc1cccc2ccccc12 | – | 71 | – | > 100 µM | – | > 100 µM | – | > 100 µM | – | > 100 µM | – | 88.7 | – | > 100 | – | 97.1 | – | > 100 µM | – | 68.8
CC(C)=C1CCC(CN2CCOCC2)C1=O (stereo not drawn) | – | 52.3 | – | 43.1 µM | – | 15.8 µM | – | 14 µM | – | 59 µM | – | 18.4 | – | 34.1 | – | > 100 | – | 29.1 µM | – | 11.2
Nc1ccccc1C(=O)NC(=O)Nc1ccc(Oc2ncc(Br)cn2)c(Cl)c1 | – | 1.21 | – | 13.4 µM | – | 12.1 µM | 0.00489 | 0.0451 µM and 0.232 µM | – | 3.53 µM | – | – | – | 10.7 | – | 0.127 | – | 18.3 µM | – | 1.5
COc1ccc2nc3cccc([N+](=O)[O-])c3c(NCCNCCN(C)C)c2c1 | 0.201 | 0.45 | 0.0712 | 0.518 µM | 0.25 | 12 µM | 0.0449 | 0.352 µM | 0.0253 | 0.0967 µM | 0.0992 | 0.308 | – | 0.293 | 0.0626 | 0.696 | 0.62 | 3.09 µM | 0.0329 | –
Cc1nc(Sc2nc3ccc([N+](=O)[O-])cc3s2)sc1C | 1.59 | 9.23 | 10.4 | 22.7 µM | 1.06 | 2.49 µM | 1.68 | 4.6 µM | 0.894 | 6.26 µM | 1.35 | 3.28 | 1.15 | 7.63 | 13.8 | 26.7 | 1.77 | 4.76 µM | 0.367 | 5.94
Cc1cccc(Nc2cc(Cl)nc(SCC(=O)O)n2)c1C | – | > 100 | – | > 100 µM | – | > 100 µM | – | > 100 µM | – | > 100 µM | – | > 100 | – | > 100 | – | > 100 | – | > 100 µM | – | > 100
CC12OC(C(=O)C13CCC3)C1C(=O)c3ccc4c(ccc5ccccc54)c3C(=O)C12 (stereo not drawn) | 8.74 | 29.6 | 19.5 | > 100 µM | 11.4 | 24.8 µM | 5.15 | 43.7 µM | 12 | 35.9 µM | 0.388 | 2.47 | 7.61 | 28.8 | – | 0.0612 | 36.1 | > 100 µM | – | –
COc1cc(-c2nccc3cc4c(cc23)OCO4)cc(OC)c1OC | 2.55 | 15.2 | 7.37 | > 100 µM | 4.56 | > 100 µM | – | – | 3.83 | > 100 µM | 2.09 | 4.72 | 4.25 | > 100 | 2.03 | 14.2 | 16.6 | > 100 µM | – | –
Nc1nc2c(ccc3ccccc32)s1 | 74.1 | > 100 | > 100 | > 100 µM | > 100 | > 100 µM | – | – | > 100 | > 100 µM | 43.4 | > 100 | 33.7 | > 100 | > 100 | > 100 | > 100 | > 100 µM | – | –
CNCCCNc1c2ccccc2nc2cccc([N+](=O)[O-])c12 | – | 0.00751 | – | 0.00587 µM and 0.0106 µM | – | 0.017 µM and 0.0108 µM | – | – | – | 0.00221 µM and 0.0103 µM | – | 0.0149 | – | 0.00489 | – | 0.0279 | – | 0.0279 µM and 0.0138 µM | – | –
Cc1cn2c(/C=N/N=C(N)N)c(-c3ccncc3)nc2s1 | – | – | 17.6 | 32.1 µM | 10.7 | 22.5 µM | 19.7 | 40.1 µM | 16.8 | 30.4 µM | 17.5 | 33.6 | 18.8 | 32.8 | 14.3 | 29.2 | – | – | 5.3 | 17.5
COc1cc(CN(c2ccc(C)cc2)C2OC(=O)c3ccccc32)cc(OC)c1OC (stereo not drawn) | 0.361 | 4.52 | 0.584 | > 100 µM | 0.501 | > 100 µM | 0.406 | 33.7 µM | 0.453 | > 100 µM | 0.328 | 13.7 | 0.432 | > 100 | 0.322 | > 100 | 0.855 | > 100 µM | – | –
CCOc1ccc(C(C)=O)cc1NC(=O)c1cccc(-c2nnn(CC)n2)c1 | 0.803 | 24 | 0.892 | > 100 µM | 0.419 | > 100 µM | – | – | 0.423 | > 100 µM | 0.377 | 5.89 | 0.481 | > 100 | 0.306 | 5.74 | 4.75 | > 100 µM | 0.401 | > 100
C[C@H](NC(=O)c1c(C(F)F)nn(C)c1Oc1cccc(C(F)(F)F)c1)c1ccc(C(=O)O)cc1 | > 100 | > 100 | > 100 | > 100 µM | > 100 | > 100 µM | > 100 | > 100 µM | > 100 | > 100 µM | > 100 | > 100 | > 100 | > 100 | > 100 | > 100 | > 100 | > 100 µM | – | –
CCN(CC)c1ccc(/C=N/NC(=O)CSc2nc3ccccc3c(=O)n2Cc2ccc(S(N)(=O)=O)cc2)c(O)c1 | – | – | 1.57 | > 100 µM | 0.363 | > 100 µM | 0.412 | 5.38 µM | 0.425 | > 100 µM | 0.287 | > 100 | 0.829 | > 100 | 1.47 | > 100 | 1.62 | > 100 µM | 0.212 | > 100
COc1cc2nc(-c3cccc4cccnc34)nc(NC3CCN(Cc4ccccc4)CC3)c2cc1OC | 1.83 | 3.39 | 0.56 | 1.94 µM | 0.158 | 0.338 µM | – | – | 0.351 | 1.23 µM | 1.52 | 3.08 | 1.36 | 2.83 | 1.44 | 3.09 | 1.82 | 3.6 µM | – | –

Reference: PubChem BioAssay (NCI)
